Test results published in patent publication US11147765B1, “Instantly dissolving buccal films” (King Abdulaziz University, priority 2020, dated 2021).
Counter-ions that a name gives are not always drawn.

Key:
[1] = Dissolution screening of DPX and its physical mixtures with organic acids and cyclodextrins; type: physicochemical; conditions: phosphate buffer pH 6.8, 37±0.5° C., in absence of excipients
Protocol: Various organic acids (CA, MA, and TA) and cyclodextrins β3-CD and HP-β-CD) were assessed as acidifiers and hydrophilic solubilizers to enhance the dissolution of DPX. Equivalent amounts of DPX and each of the studied excipients were thoroughly mixed for 5 min. The dissolution behavior of specified quantity of each mixture equivalent to 30 mg DPX was done in 900 mL phosphate buffer (pH 6.8) using USP Dissolution Tester, apparatus II (DT 720, Erweka, Germany) operating at 50 rpm at 37±0.5° C.. Aliquot samples were withdrawn after 2 and 15 minutes and replaced with equal volume of fresh buffer. Samples were filtered through a 0.22 μm Millipore filter, and the concentration of DPX was quantified spectrophotometrically at 292 nm (UV-2600 PC; Shimadzu, Kyoto, Japan). The dissolution study was done in triplicate.

[2] = reported [26]; cited from earlier work

percent dissolved after 2 minutes [1]: 2.13±0.09% | percent dissolved after 15 minutes [1]: 2.89±0.06%
Structure (SMILES): CN(C)[C@@H](CCOc1cccc2ccccc12)c1ccccc1 [DPX, Dapoxetine hydrochloride]
solubility in phosphate buffer pH 6.8 [2]: 0.26 μg·mL^−1
